Among the data in patent US11040028B2, “Penicinotam derivative, preparation method and use thereof” (OCEAN UNIVERSITY OF CHINA, priority 2017, dated 2021) are IC50 values, retold here.

Format in all cases: cell-based
The subject of one experiment is BHK-21 cells. Description: Anti-fibrosis activity test: inhibition of BHK-21 cell proliferation (CCK-8). The following applies: Mesocricetus auratus, BHK-21, 48 h, 48 h, CCK-8. The method in brief: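 BHK-21 cells seeded at 2×10^4 cells/mL, allowed to adhere 24 h at 37° C, 5% CO2, then exposed to compounds at graded concentrations in triplicate for 48 h. CCK-8 added for 2 h and absorbance read at 450 nm; inhibition rate taken as (1−Ai/Ao)×100% and IC50 fitted.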

In experiment [1] the test system is human lung fibroblasts HFL1. Description: Anti-fibrosis activity test: inhibition of proliferation of human lung fibroblasts HFL1 (CCK-8). The following applies: Homo sapiens, HFL1, 48 h, HFL1 cells, 48 h, CCK-8. A digest of the protocol: (§1)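 48 h compound treatment of fibroblast-type cells seeded at 2×10^4 cells/mL, 37° C, 5% CO2; viability by CCK-8 (2 h, A450). Inhibition rate calculated against blank control, IC50 by curve fitting; pirfenidone served as reference.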

For experiment [2], the system named is human hepatic stellate cells LX-2. Put plainly: Anti-fibrosis activity test: inhibition of proliferation of human hepatic stellate cells LX-2 (CCK-8). The following applies: Homo sapiens, LX-2, 48 h, LX-2 cells, 48 h, CCK-8. The method in brief: as §1
Experiment [3] has as its system human fibrosarcoma cells HT-1080. Put plainly: Anti-fibrosis activity test: inhibition of proliferation of human fibrosarcoma cells HT-1080 (CCK-8). The following applies: Homo sapiens, HT-1080, 48 h, HT-1080 cells, 48 h, CCK-8. A digest of the protocol: as §1
Experiment [4] concerns human dermal fibroblasts CCC-ESF-1. Put plainly: Anti-fibrosis activity test: inhibition of proliferation of human dermal fibroblasts CCC-ESF-1 (CCK-8). The following applies: Homo sapiens, Fibroblast; CCC-ESF-1 cells, 48 h, CCK-8. A digest of the protocol:
as §1

In experiment [5] the test system is human embryonic lung fibroblast IMR-90. Put plainly: Anti-fibrosis activity test: inhibition of proliferation of human embryonic lung fibroblast IMR-90 (CCK-8). The settings on record: Homo sapiens; IMR-90 cells, 48 h, CCK-8. The method in brief:
as §1

Experiment [6] relates to cardiac fibroblast RAT-iCell-C002. Description: Anti-fibrosis activity test: inhibition of proliferation of cardiac fibroblast RAT-iCell-C002 (CCK-8). The following applies: Cardiac fibroblast, 48 h, RAT-iCell-C002 cells, CCK-8. A digest of the protocol:
as §1

Another experiment concerns NF-κB. Description: Immunological activity test: inhibition of NF-κB activity. The settings on record: initial concentration of 30 μM; a/b isomers given as first/second symbol; read-out: IC50 (μM), inhibitory activity against NF-κB. A digest of the protocol:
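Compounds were first screened for inhibition of NF-κB activity at 30 μM, with parthenolide as the positive control. IC50 values were then determined for the compounds by further analysis of the assay data.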

The test system of experiment [7] is mouse macrophages (RAW264.7). Description: Lipopolysaccharide-induced NO secretion in macrophages (Griess). The settings on record: Mus musculus, RAW264.7, 24 h, RAW264.7, LPS 1 μg/ml, a/b isomers given as first/second symbol, read-out: IC50 (μM), inhibition of lipopolysaccharide-induced NO secretion in macrophages. The method in brief: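 RAW264.7 macrophages in DMEM with 10% FBS received test samples at several concentrations and were stimulated with 1 μg/ml LPS for 24 h. NO in the supernatant was measured with the Griess reagent at 548 nm, […].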
In general terms: The Griess reaction detects nitrite, a stable product of nitric oxide.

With `O=C1c2c(n(CCCN3CCNCC3)c3ccccc3c2=O)-c2cccn21` [Compound 669a, 4-(3-(Piperazin-1-yl)propyl)-9H-pyrrolizino[1,2-b]quinoline-9,10(4H)-dione], the IC50 (in the experiment with BHK-21 cells; in [1]; in experiment [2]; in experiment [3]; in experiment [4]; in [5]) was 0.05 to 5 mM each time. Also, the half-maximal inhibitory concentration (IC50) in experiment [6] lay in the range of 0.05 to 5 mM; in the experiment with NF-κB, 0.1 to 1 µM; in [7], 1 to 10 µM.

Turning to `O=C1c2c(nc3ccccc3c2OCCCN2CCNCC2)-c2cccn21` [Compound 669b, 9-(3-(piperazin-1-yl)propoxy)-10H-pyrrolizino[1,2-b]quinolin-10-one], the IC50 (with BHK-21 cells; in [1]; in experiment [2]; in experiment [3]; in [4]; in experiment [5]) was 0.05 to 5 mM each time. In addition, the 50% inhibitory concentration (IC50) in experiment [6] lay in the range of 0.05 to 5 mM; in the experiment on NF-κB it was 1 to 10 µM; in experiment [7] it was 1 to 10 µM.

With `O=C1c2c(n(CCCCN3CCNCC3)c3ccccc3c2=O)-c2cccn21` [Compound 670a, 4-(4-(Piperazin-1-yl)butyl)-9H-pyrrolizino[1,2-b]quinoline-9,10(4H)-dione], the half-inhibitory concentration (IC50) in the experiment with BHK-21 cells was < 0.05 mM; in [1], 0.05 to 5 mM; in experiment [2] it was 0.05 to 5 mM; in experiment [3], 0.05 to 5 mM; in experiment [4], 0.05 to 5 mM; in [5], < 0.05 mM. Also, the IC50 is 0.05 to 5 mM in experiment [6], 0.1 to 1 µM in the experiment with NF-κB and 1 to 10 µM in [7].

Regarding `O=C1c2c(nc3ccccc3c2OCCCCN2CCNCC2)-c2cccn21` [Compound 670b, 9-(4-(piperazin-1-yl)butoxy)-10H-pyrrolizino[1,2-b]quinolin-10-one], the concentration for half-maximal inhibition (IC50) (with BHK-21 cells; in experiment [1]; in experiment [2]; in [3]; in [4]; in [5]) was 0.05 to 5 mM in each case. The IC50 in experiment [6] is 0.05 to 5 mM; with NF-κB, 1 to 10 µM; in experiment [7] it was 1 to 10 µM.

Consider `CCCOCCn1c2c(c(=O)c3ccccc31)C(=O)n1cccc1-2` [Compound 671a, 4-(2-Propoxyethyl)-9H-pyrrolizino[1,2-b]quinoline-9,10(4H)-dione], for which the IC50 (in the experiment on BHK-21 cells; in experiment [1]; in [2]; in experiment [3]; in experiment [4]; in experiment [5]) was 0.05 to 5 mM in each case. In addition, the half-inhibitory concentration (IC50) lay in the range of 0.05 to 5 mM in [6], 1 to 10 µM in the experiment on NF-κB and 1 to 10 µM in [7].

With `CCCOCCOc1c2c(nc3ccccc13)-c1cccn1C2=O` [Compound 671b, 9-(2-propoxyethoxy)-10H-pyrrolizino[1,2-b]quinolin-10-one], the IC50 (in the experiment on BHK-21 cells; in experiment [1]; in [2]; in experiment [3]; in experiment [4]; in experiment [5]) was 0.05 to 5 mM throughout. Moreover, the IC50 in [6] lay within 0.05 to 5 mM; in the experiment with NF-κB, 0.1 to 1 µM; in experiment [7] it was 1 to 10 µM.

`CCOCCCn1c2c(c(=O)c3ccccc31)C(=O)n1cccc1-2` [Compound 672a, 4-(3-Ethoxypropyl)-9H-pyrrolizino[1,2-b]quinoline-9,10(4H)-dione]: the IC50 (in the experiment with BHK-21 cells; in experiment [1]; in experiment [2]; in experiment [3]; in experiment [4]; in [5]) was 0.05 to 5 mM throughout. Besides, the IC50 in experiment [6] lay in the range of 0.05 to 5 mM; with NF-κB it was 1 to 10 µM; in [7], 1 to 10 µM.

Consider `CCOCCCOc1c2c(nc3ccccc13)-c1cccn1C2=O` [Compound 672b, 9-(3-ethoxypropoxy)-10H-pyrrolizino[1,2-b]quinolin-10-one], for which the concentration for half-maximal inhibition (IC50) (with BHK-21 cells; in [1]; in experiment [2]; in experiment [3]; in experiment [4]; in experiment [5]) was 0.05 to 5 mM in each case. Also, the IC50 lay in the range of 0.05 to 5 mM in [6], 1 to 10 µM with NF-κB and 1 to 10 µM in [7].

In the case of `O=C1c2c(n(C3CC3)c3ccccc3c2=O)-c2cccn21` [Compound 673a, 4-Cyclopropyl-9H-pyrrolizino[1,2-b]quinoline-9,10(4H)-dione], the IC50 is < 0.05 mM in the experiment with BHK-21 cells; 0.05 to 5 mM in experiment [1]; 0.05 to 5 mM in experiment [2]; 0.05 to 5 mM in experiment [3]; 0.05 to 5 mM in [4]; 0.05 to 5 mM in experiment [5]. Also, the IC50 in experiment [6] fell in the range of 0.05 to 5 mM; with NF-κB, 1 to 10 µM; in [7], 1 to 10 µM.

Consider `O=C1c2c(nc3ccccc3c2OC2CC2)-c2cccn21` [Compound 673b, 9-cyclopropoxy-10H-pyrrolizino[1,2-b]quinolin-10-one], for which the IC50 (in the experiment with BHK-21 cells; in experiment [1]; in experiment [2]; in experiment [3]; in [4]; in experiment [5]) was 0.05 to 5 mM throughout. For the same compound, the IC50 is 0.05 to 5 mM in [6], 1 to 10 µM in the experiment on NF-κB and 1 to 10 µM in experiment [7].

`Cc1cccc2[nH]c3c(c(=O)c12)C(=O)n1cccc1-3` [Compound 678a, 8-Methyl-9H-pyrrolizino[1,2-b]quinoline-9,10(4H)-dione]: the IC50 (with BHK-21 cells; in [1]; in experiment [2]; in experiment [3]; in experiment [4]; in experiment [5]) was 0.05 to 5 mM in each case. Also, the half-inhibitory concentration (IC50) was 0.05 to 5 mM in experiment [6], 1 to 10 µM with NF-κB and 1 to 10 µM in experiment [7].

Regarding `Cc1cccc2nc3c(c(O)c12)C(=O)n1cccc1-3` [Compound 678b, 9-hydroxy-8-methyl-10H-pyrrolizino[1,2-b]quinolin-10-one], the IC50 (in the experiment with BHK-21 cells; in [1]; in experiment [2]; in experiment [3]; in experiment [4]; in experiment [5]) was 0.05 to 5 mM in each case. The IC50 lay in the range of 0.05 to 5 mM in experiment [6], 1 to 10 µM with NF-κB and 1 to 10 µM in experiment [7].

For the compound `Cc1ccc2[nH]c3c(c(=O)c2c1)C(=O)n1cccc1-3` [Compound 696a, 7-Methyl-9H-pyrrolizino[1,2-b]quinoline-9,10(4H)-dione], the IC50 (in the experiment on BHK-21 cells; in [1]; in experiment [2]; in experiment [3]; in experiment [4]; in experiment [5]) was 0.05 to 5 mM each time. For the same compound, the IC50 in experiment [6] was 0.05 to 5 mM; in the experiment on NF-κB, 1 to 10 µM; in experiment [7], 1 to 10 µM.

Consider `Cc1ccc2nc3c(c(O)c2c1)C(=O)n1cccc1-3` [Compound 696b, 9-hydroxy-7-methyl-10H-pyrrolizino[1,2-b]quinolin-10-one], for which the IC50 (in the experiment with BHK-21 cells; in experiment [1]; in [2]; in [3]; in experiment [4]; in experiment [5]) was 0.05 to 5 mM each time. Also, the IC50 in experiment [6] lay in the range of 0.05 to 5 mM; with NF-κB, 1 to 10 µM; in [7], 1 to 10 µM.

As for `Cc1cccc2c(=O)c3c([nH]c12)-c1cccn1C3=O` [Compound 732a, 5-Methyl-9H-pyrrolizino[1,2-b]quinoline-9,10(4H)-dione], the half-maximal inhibitory concentration (IC50) with BHK-21 cells was < 0.05 mM; in experiment [1] it was 0.05 to 5 mM; in experiment [2], 0.05 to 5 mM; in experiment [3] it was 0.05 to 5 mM; in [4], < 0.05 mM; in experiment [5], 0.05 to 5 mM. Further, the concentration for half-maximal inhibition (IC50) in [6] was in the range of 0.05 to 5 mM; in the experiment with NF-κB it was 0.1 to 1 µM; in [7], 1 to 10 µM.

As to `Cc1cccc2c(O)c3c(nc12)-c1cccn1C3=O` [Compound 732b, 9-hydroxy-5-methyl-10H-pyrrolizino[1,2-b]quinolin-10-one], the half-maximal inhibitory concentration (IC50) (in the experiment on BHK-21 cells; in experiment [1]; in experiment [2]; in [3]; in experiment [4]; in experiment [5]) was 0.05 to 5 mM each time. The half-inhibitory concentration (IC50) was 0.05 to 5 mM in experiment [6], 1 to 10 µM in the experiment with NF-κB and 1 to 10 µM in experiment [7].

The IC50 is the concentration that inhibits the measured activity by half.
